pKd: −log10 of the molar value. Like-named read-outs stand apart in the source and are kept apart here.
How the values were obtained:
[1] = target: T1, BaKynB (Bacillus anthracis, UniProt Q81PP9); assay: biochemical
T1 construct: gene kynB

[2] = target: T1, BaKynB; assay: biochemical; remark: listed apart in the source

T1 sequence (Q81PP9 whole entry, looked up): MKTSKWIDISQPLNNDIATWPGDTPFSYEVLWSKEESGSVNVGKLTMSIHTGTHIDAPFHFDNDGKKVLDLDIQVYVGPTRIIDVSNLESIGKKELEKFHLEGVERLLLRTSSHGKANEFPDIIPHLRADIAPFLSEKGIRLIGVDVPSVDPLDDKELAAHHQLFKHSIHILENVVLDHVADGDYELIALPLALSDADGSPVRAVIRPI

| Compound | pKd [1] | pKd [2] |
| --- | --- | --- |
| Nc1ccccc1C(=O)C[C@H](N)C(=O)O [L-kynurenine, (S)-2-amino-4-(2-aminophenyl)-4-oxobutanoic acid] | ~4.22 |  |
| CC(=O)c1ccccc1N [2-aminoacetophenone] |  | ~4.30 |

Reference: article PMC4243253 (Biochemical Journal, 2014)
